Results on four compounds are retold here after ChEMBL document CHEMBL1201862, “PubChem BioAssay data set” (2004).

Structures are written as SMILES. The source made the active and inactive calls.

The nature of experiment [1]: viability of uninfected HEp-2 cells – cell-based, HTS, cytotoxicity control for RSV inhibitor project, dose response (AID 2410). It counts as functional. The following applies: human respiratory syncytial virus.
Experiment [2] has as its system Streptococcus sp. 'group A'. The experiment is described as follows: Streptococcus pyogenes SK(-)GAS viability under kanamycin – luminescence, BacTiterGlo, confirmation, counter-screen for streptokinase expression inhibitor project, dose response (AID 1900). It counts as functional, organism-based.
Experiment [3] has as its target T1, Short transient receptor potential channel 4 (Mus musculus, UniProt Q9QUQ5).
T1 sequence (Q9QUQ5 whole entry): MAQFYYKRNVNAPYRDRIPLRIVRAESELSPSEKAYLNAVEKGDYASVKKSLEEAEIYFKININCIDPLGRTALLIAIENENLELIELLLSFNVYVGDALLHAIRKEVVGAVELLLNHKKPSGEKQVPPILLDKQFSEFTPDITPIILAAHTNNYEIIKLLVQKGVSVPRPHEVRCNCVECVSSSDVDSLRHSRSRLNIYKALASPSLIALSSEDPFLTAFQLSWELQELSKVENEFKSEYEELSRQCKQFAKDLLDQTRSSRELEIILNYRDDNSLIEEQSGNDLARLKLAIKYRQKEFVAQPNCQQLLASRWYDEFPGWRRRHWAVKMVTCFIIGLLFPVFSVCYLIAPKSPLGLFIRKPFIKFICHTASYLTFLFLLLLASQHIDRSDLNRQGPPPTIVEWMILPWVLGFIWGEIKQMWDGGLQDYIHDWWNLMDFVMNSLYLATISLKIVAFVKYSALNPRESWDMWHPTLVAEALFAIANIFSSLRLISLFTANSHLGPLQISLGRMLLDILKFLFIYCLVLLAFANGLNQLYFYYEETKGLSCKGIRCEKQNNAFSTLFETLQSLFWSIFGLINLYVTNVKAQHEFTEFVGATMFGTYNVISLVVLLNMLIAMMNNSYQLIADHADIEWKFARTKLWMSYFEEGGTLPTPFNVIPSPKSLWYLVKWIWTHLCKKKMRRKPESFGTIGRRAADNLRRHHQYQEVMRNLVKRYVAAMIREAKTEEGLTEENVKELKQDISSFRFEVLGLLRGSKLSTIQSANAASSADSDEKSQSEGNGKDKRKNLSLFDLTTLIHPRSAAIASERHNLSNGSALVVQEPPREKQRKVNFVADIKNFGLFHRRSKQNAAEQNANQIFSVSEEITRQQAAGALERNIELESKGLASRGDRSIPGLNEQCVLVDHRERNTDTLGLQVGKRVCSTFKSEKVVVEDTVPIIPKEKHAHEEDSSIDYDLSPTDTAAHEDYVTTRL
Briefly: block of DAMGO-driven TRPC4 calcium entry – cell-based, HEK293 TRPC4/mu-opioid, Fluo-4 calcium, dose response (AID 434942).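 Also: potency of inhibitors blocking the TRPC4 calcium response.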 It counts as functional.

In experiment [4] the target is Serine/threonine-protein phosphatase (Homo sapiens, UniProt Q9BPW0). Briefly: inhibition of protein phosphatase 5 activity – biochemical, fluorescence, dose response (AID 2395).
Chain of Serine/threonine-protein phosphatase (Q9BPW0 whole entry): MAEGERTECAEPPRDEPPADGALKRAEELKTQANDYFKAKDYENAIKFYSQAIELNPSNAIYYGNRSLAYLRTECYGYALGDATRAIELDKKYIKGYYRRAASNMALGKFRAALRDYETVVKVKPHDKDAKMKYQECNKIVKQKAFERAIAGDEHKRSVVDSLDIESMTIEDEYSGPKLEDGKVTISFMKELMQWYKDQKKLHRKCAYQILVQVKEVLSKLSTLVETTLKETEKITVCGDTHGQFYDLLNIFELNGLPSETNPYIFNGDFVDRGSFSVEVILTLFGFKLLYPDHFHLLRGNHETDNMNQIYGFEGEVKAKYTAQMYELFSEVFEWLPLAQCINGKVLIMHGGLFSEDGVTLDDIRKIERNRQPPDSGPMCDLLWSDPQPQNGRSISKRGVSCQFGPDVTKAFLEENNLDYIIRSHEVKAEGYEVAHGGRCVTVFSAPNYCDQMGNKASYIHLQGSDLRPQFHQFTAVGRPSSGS
Experiment [5] addresses T2, Sentrin-specific protease 8 (Homo sapiens, UniProt Q96LD8).
T2 sequence (Q96LD8 whole entry): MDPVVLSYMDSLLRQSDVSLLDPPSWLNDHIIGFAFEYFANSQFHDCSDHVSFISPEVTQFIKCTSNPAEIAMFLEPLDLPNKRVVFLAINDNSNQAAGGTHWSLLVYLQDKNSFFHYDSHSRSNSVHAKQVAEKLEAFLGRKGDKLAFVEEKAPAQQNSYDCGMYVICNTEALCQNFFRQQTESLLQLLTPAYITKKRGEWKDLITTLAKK
Briefly: inhibition of human SENP8 cleavage activity – biochemical, luminescence, SAR follow-up (AID 504501). It counts as functional.

The target in experiment [6] is T3, Sentrin-specific protease 7 (Homo sapiens, UniProt Q9BQF6).
T3 sequence (Q9BQF6 whole entry): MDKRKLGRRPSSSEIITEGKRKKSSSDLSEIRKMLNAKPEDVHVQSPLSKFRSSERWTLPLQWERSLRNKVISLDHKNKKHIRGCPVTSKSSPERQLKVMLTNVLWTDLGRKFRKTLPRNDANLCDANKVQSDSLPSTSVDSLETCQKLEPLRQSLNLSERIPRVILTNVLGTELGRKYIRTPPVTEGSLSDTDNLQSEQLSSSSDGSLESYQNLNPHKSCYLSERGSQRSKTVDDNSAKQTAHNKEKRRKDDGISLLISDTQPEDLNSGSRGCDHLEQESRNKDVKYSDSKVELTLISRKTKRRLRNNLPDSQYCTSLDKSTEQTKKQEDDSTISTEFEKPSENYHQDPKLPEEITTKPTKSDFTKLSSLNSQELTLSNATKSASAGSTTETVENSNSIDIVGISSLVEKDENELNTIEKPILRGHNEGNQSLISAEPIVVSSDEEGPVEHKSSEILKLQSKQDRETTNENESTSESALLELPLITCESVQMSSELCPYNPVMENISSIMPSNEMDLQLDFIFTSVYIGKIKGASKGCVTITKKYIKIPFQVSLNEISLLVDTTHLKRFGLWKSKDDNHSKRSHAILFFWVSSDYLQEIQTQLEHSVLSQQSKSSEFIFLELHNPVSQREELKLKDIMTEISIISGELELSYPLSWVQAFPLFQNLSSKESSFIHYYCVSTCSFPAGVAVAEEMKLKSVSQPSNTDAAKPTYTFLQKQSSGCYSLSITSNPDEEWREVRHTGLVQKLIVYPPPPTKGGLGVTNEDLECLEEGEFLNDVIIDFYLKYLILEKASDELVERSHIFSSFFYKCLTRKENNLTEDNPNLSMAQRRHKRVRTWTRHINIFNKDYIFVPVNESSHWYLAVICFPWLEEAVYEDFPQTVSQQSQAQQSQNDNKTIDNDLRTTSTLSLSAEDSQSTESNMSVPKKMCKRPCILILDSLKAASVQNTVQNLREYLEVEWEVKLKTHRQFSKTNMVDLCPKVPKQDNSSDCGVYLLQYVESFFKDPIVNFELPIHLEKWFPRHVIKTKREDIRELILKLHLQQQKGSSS
Briefly: inhibition of human SENP7 cleavage activity – biochemical, luminescence, SAR follow-up (AID 504497). It counts as functional.

Experiment [7] concerns the target Polyadenylate-binding protein 1 (Homo sapiens, UniProt P11940). The experiment is described as follows: MLLE binding blockers, Cy5 peptide tracer – biochemical, fluorescence polarization, Cy5-PAM2 peptide, secondary, miRNA deadenylation inhibitor project, dose response (AID 602260). It counts as functional. To be noted: read-out: IC50_Mean. For orientation: In fluorescence polarisation assays a small probe gives low polarisation when free and higher when bound to something large.

Experiment [8] has as its system BJ. The experiment is described as follows: cells. It counts as functional, cell-based. The following applies: Homo sapiens.
Experiment [9] has as its system BJ. The experiment is described as follows: BJ-TERT-LT-ST fibroblast viability loss – cell-based, RAS-independent, luminescence, dose response (AID 1935).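 Also: BJ fibroblasts immortalized with TERT plus LT and ST oncogenes.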 It counts as functional. The following applies: Homo sapiens.
Experiment [10] can be described thus: viability loss in HeLa cells – cytotoxicity control for MgcRacGAP inhibitor project, dose response (AID 624300). It counts as functional.
In the next experiment the target is Paired box protein Pax-8 (Homo sapiens, UniProt Q06710). The experiment is described as follows: PAX8 transcriptional activity inhibition in RMG-I – RMG-I cells, luciferase, cherry-pick, dose response (AID 687027).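 Also: luciferase reporter driven by Pax8 target thyroperoxidase promoter measured by SteadyGlo luminescence.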 It counts as functional, cell-based.
Chain of Paired box protein Pax-8 (Q06710 whole entry): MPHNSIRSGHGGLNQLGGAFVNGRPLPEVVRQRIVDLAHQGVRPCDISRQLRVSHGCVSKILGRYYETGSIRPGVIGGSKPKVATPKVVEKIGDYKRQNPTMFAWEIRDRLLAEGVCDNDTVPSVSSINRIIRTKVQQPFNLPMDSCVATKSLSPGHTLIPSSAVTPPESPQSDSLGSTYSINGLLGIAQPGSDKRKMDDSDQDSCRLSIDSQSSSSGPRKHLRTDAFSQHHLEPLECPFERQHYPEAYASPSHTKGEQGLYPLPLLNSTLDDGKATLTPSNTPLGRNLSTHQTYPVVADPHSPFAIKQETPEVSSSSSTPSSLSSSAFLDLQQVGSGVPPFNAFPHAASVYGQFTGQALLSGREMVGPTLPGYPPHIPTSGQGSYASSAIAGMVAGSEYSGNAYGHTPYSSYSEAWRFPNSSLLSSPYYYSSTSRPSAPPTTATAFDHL
The nature of experiment [11]: NIH3T3 cell viability loss – ATP luminescence, mouse fibroblasts, counter-screen, dose response (AID 2010).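 Also: cells exposed to compound for about 90 hours before reading.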 It counts as functional, cell-based. On the technique in general: The purpose of a counterscreen is to sort out artefacts and off-target activity.
The test system of another experiment is Vero. Briefly: viability of Vero cells under compound – cytotoxicity control for flavivirus capping enzyme inhibitors (AID 588742). It counts as functional. The following applies: Chlorocebus sabaeus.

Chain of Polyadenylate-binding protein 1 (P11940 whole entry): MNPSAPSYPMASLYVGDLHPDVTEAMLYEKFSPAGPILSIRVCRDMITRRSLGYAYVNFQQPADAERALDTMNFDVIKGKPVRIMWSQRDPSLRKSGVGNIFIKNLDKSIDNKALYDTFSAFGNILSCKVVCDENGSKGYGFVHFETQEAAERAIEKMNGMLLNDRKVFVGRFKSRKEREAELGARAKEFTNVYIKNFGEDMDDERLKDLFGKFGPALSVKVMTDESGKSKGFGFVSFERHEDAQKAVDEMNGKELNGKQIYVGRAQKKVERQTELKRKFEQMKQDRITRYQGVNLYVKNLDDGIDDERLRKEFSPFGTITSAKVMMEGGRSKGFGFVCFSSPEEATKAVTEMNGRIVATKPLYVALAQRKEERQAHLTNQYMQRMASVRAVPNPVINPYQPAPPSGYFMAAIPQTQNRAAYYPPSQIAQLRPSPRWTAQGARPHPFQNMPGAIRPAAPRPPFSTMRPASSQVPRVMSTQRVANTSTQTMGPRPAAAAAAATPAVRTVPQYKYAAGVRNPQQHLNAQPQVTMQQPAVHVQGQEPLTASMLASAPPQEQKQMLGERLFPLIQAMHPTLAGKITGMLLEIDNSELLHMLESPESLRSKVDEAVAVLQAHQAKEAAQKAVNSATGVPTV

The term CC50 denotes the concentration that lowers cell viability or growth by half. In general, EC50 refers to the midpoint of the concentration-response curve. Regarding `Cc1cccc(C)c1-n1cccc1/C=C1\SC(=S)N(c2cccc(C(=O)O)c2)C1=O`, the CC50 in [1] was 12.8 µM (active). Further, the EC50 is 2.07 µM (active) in experiment [2] and 3.35 µM (active) in [3].
On to `Oc1ccc(/C=N/Nc2cc(N3CCCC3)nc(N3CCCC3)n2)cc1`, for which the IC50 was 10.9 µM (not active) in experiment [4], > 99 µM (inactive) in [5], > 99 µM (inactive) in [6] and > 66 µM (inactive) in experiment [7].
Broadly, the AC50 is the concentration giving half of the maximal activity seen. Regarding `COc1ccc(S(=O)(=O)/N=C2\C=C(Nc3ccc(O)cc3)C(=O)c3ccccc32)cc1`, the half-maximal effective concentration (EC50) with BJ [8] was 3.21 µM (inconclusive); in the experiment on BJ [9], 2.93 µM (inconclusive). Moreover, the CC50 in experiment [10] is 2.15 µM (active). The AC50 on Paired box protein Pax-8 is 1.86 µM (active).
On to `COc1ccc(/C=N/Nc2cc(N3CCCC3)nc(N3CCCC3)n2)cc1`, for which the EC50 in experiment [11] is 8.97 µM (active). The CC50 in the experiment with Vero was 24.7 µM (active).
